Test results from US9458172B2, “Pyridinyl and pyrimidinyl sulfoxide and sulfone derivatives” (priority 2012, dated 2016).
Where two headings read alike, the source gives them in different places.

Legend:
[1] = target: NAMPT (Homo sapiens (Human), UniProt P43490); assay: Biochemical Inhibition Assay (NAMPT enzymatic reaction, NMN quantified by mass spectrometry); conditions: 33 nM recombinant His-tagged NAMPT, 1 μM NAM, 30 min at rt
Method in brief: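 His-tagged human NAMPT from E. coli preincubated 15 min at rt with compound in 50 mM Hepes pH 7.5, 50 mM NaCl, 5 mM MgCl2, 1 mM THP, then reacted 30 min at rt with 1 μM NAM, […] PRPP, 2.5 mM ATP. NMN quantified by RapidFire mass spectrometry, normalized to L-Cystathionine, background subtracted.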

[2] = system: A2780 cells; assay: In-Vitro Cell Proliferation Assay (SRB)
[3] = Homo sapiens, A2780, 72 h, read-out: Cell Proliferation (IC50)
[4] = read-out: Cell Proliferation (IC50), A2780 cells, 72 h, sulforhodamine B
[5] = Homo sapiens, A2780, 72 h, read-out: Cell Proliferation (IC50), A2780 cells, 72 h, sulforhodamine B

NAMPT, sequence (P43490 whole entry): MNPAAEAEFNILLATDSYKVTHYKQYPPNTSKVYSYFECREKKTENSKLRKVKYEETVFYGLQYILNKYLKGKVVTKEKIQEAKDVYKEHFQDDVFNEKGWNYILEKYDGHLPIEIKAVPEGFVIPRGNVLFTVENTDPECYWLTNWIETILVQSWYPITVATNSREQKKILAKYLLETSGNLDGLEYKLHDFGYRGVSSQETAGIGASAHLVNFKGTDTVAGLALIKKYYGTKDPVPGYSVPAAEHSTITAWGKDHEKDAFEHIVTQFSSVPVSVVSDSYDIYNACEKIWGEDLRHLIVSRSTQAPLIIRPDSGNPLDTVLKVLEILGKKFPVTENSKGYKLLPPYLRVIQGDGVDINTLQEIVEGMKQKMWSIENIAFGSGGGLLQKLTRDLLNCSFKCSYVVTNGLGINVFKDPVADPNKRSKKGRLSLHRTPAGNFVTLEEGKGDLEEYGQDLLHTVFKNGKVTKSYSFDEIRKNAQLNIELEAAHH

| SMILES | IC50 [1] [nM] | IC50 [2, 3] [nM] | IC50 [2, 4] [nM] | IC50 [2, 5] [nM] |
| --- | --- | --- | --- | --- |
| CS(=O)(=O)c1cccc(S(=O)(=O)c2ccc(CNC(=O)c3cnc4[nH]ncc4c3)nc2)c1 [Example 134, N-[[5-(3-methylsulfonylphenyl)sulfonyl-2-pyridyl]methyl]-1H-pyrazolo[3,4-b]pyridine-5-carboxamide] | 16.8 | 446 | – | – |
| O=C(NCc1ccc([S+]([O-])c2cc(F)cc(F)c2)cn1)c1ccc2nccn2c1 (racemic) [Example 14, Imidazo[1,2-a]pyridine-6-carboxylic acid [5-(3,5-difluoro-benzenesulfinyl)-pyridin-2-ylmethyl)-amide (racemic)] | 36.5 | – | 51.3 | – |
| CN(C)c1ncc(S(=O)(=O)c2ccc(CNC(=O)N3Cc4ccncc4C3)nc2)s1 [Example 98, 1,3-Dihydro-pyrrolo[3,4-c]pyridine-2-carboxylic acid [5-(2-dimethylamino-thiazole-5-sulfonyl)-pyridin-2-ylmethyl)-amide] | 6.6 | 4.97 | – | – |
| O=C(NCc1ccc(S(=O)(=O)c2ccc(N3CCOCC3)cc2)cn1)c1cc2ccncc2o1 [Example 37, Furo[2,3-c]pyridine-2-carboxylic acid [5-(4-morpholin-4-yl-benzenesulfonyl)-pyridin-2-ylmethyl]-amide] | 3.5 | 1 | – | – |
| O=C(NCc1ccc(S(=O)(=O)c2ccc(N3CCOCC3)nc2)cn1)c1cnc2[nH]ncc2c1 [Example 41, 1H-Pyrazolo[3,4-b]pyridine-5-carboxylic acid (5-(6-morpholin-4-yl-pyridine-3-sulfonyl)-pyridin-2-ylmethyl]-amide] | 19 | 7.2 | – | – |
| CC(C)CN1CCC([S+]([O-])c2ccc(CNC(=O)c3cc4ccncc4o3)nc2)CC1 (racemic) [Example 102, Furo[2,3-c]pyridine-2-carboxylic acid [5-(1-isobutyl-piperidine-4-sulfinyl)-pyridin-2-ylmethyl]-amide (racemic)] | 69.3 | 25.6 | – | – |
| O=C(NCc1ccc(S(=O)(=O)c2ccc(C(F)(F)F)nc2)cn1)c1ccc2nccn2c1 [Example 82, Imidazo[1,2-a]pyridine-6-carboxylic acid [5-(6-trifluoromethyl-pyridine-3-sulfonyl)-pyridin-2-ylmethyl]-amide] | 72.3 | 330 | – | – |
| COc1cccc(S(=O)(=O)c2ccc(CNC(=O)c3cnc4nccn4c3)nc2)c1 [Example 33, Imidazo[1,2-a]pyrimidine-6-carboxylic acid [5-(3-methoxy-benzenesulfonyl)-pyridin-2-ylmethyl]-amide] | 4.6 | 28.6 | – | – |
| COc1ccc(S(=O)(=O)c2ccc(CNC(=O)c3cnc4[nH]ncc4c3)nc2)cc1OC [Example 70, 1H-Pyrazolo[3,4-b]pyridine-5-carboxylic acid [5-(3,4-dimethoxy-benzenesulfonyl)-pyridin-2-ylmethyl]-amide] | 48.5 | – | – | 24.6 |
| O=C(NCc1ccc(S(=O)(=O)c2cccc(OC(F)(F)F)c2)cn1)c1cnc2nccn2c1 [Example 20, Imidazo[1,2-a]pyrimidine-6-carboxylic acid [5-(3-trifluoromethoxy-benzenesulfonyl)-pyridin-2-ylmethyl]-amide] | 3.4 | 11.4 | – | – |
| COc1cccc(S(=O)(=O)c2ccc(CNC(=O)c3cc4ccncc4o3)nc2)c1 [Example 32] | 6.1 | 9.1 | – | – |
| CCS(=O)(=O)c1cccc(S(=O)(=O)c2ccc(CNC(=O)c3ccc4nccn4c3)nc2)c1 [Example 96, Imidazo[1,2-a]pyridine-6-carboxylic acid [5-(3-ethanesulfonyl-benzenesulfonyl)-pyridin-2-ylmethyl]-amide] | 19.3 | 38.1 | – | – |
| CN1CCN(c2ccc(S(=O)(=O)c3ccc(CNC(=O)c4cnc5nccn5c4)nc3)cn2)CC1 [Example 47, Imidazo[1,2-a]pyrimidine-6-carboxylic acid {5-[6-(4-methyl-piperazin-1-yl)-pyridine-3-sulfonyl]-pyridin-2-ylmethyl}-amide] | 2.2 | 14.1 | – | – |
| O=C(NCc1ccc(S(=O)(=O)c2cc(F)cc(F)c2)cn1)c1cnc2nccn2c1 [Example 2, Imidazo[1,2-a]pyrimidine-6-carboxylic acid [5-(3,5-difluoro-benzenesulfonyl)-pyridin-2-ylmethyl]-amide] | 6.5 | 52.6 | – | – |
| Cc1ccc(S(=O)(=O)c2ccc(CNC(=O)c3cc4ccncc4s3)nc2)cn1 [Example 95, Thieno[2,3-c]pyridine-2-carboxylic acid [5-(6-methyl-pyridine-3-sulfonyl)-pyridin-2-ylmethyl]-amide] | 37.7 | 234 | – | – |
| CCCn1cc(S(=O)(=O)c2ccc(CNC(=O)c3cc4ccncc4s3)nc2)cn1 [Example 76, Thieno[2,3-c]pyridine-2-carboxylic acid [5-(1-propyl-1H-pyrazole-4-sulfonyl)-pyridin-2-ylmethyl]-amide] | 3.1 | 9 | – | – |
| O=C(NCc1ccc(S(=O)(=O)C2CCN(C3CCOCC3)CC2)cn1)c1cc2cnccc2[nH]1 [Example 42, 1H-Pyrrolo[3,2-c]pyridine-2-carboxylic acid {5-[1-(tetrahydro-pyran-4-yl)-piperidine-4-sulfonyl]-pyridin-2-ylmethyl)-amide] | 249 | 86.3 | – | – |
| CCS(=O)(=O)c1cccc(S(=O)(=O)c2ccc(CNC(=O)c3cnc4[nH]ncc4c3)nc2)c1 [Example 106, 1H-Pyrazolo[3,4-b]pyridine-5-carboxylic acid [5-(3-ethanesulfonyl-benzenesulfonyl)-pyridin-2-ylmethyl]-amide] | 135 | 328 | – | – |
| O=C(NCc1ccc(S(=O)(=O)N2CCN(C3CCOCC3)CC2)cn1)N1Cc2ccncc2C1 [Example 126, N-[[5-(4-tetrahydropyran-4-ylpiperazin-1-yl)sulfonyl-2-pyridyl]methyl]-1,3-dihydropyrrolo[3,4-c]pyridine-2-carboxamide] | 68.4 | 56 | – | – |
| O=C(NCc1ccc(S(=O)(=O)C2CCN(C3CCOC3)CC2)cn1)c1cc2ccncc2o1 (centres unmarked) [Example 128, N-[[5-[(1-tetrahydrofuran-3-yl-4-piperidyl)sulfonyl]-2-pyridyl]methyl]furo[2,3-c]pyridine-2-carboxamide] | 73 | 25.4 | – | – |
| CCS(=O)(=O)c1cccc(S(=O)(=O)c2ccc(CNC(=O)c3cc4ccncc4o3)nc2)c1 [Example 109, N-[[5-(3-ethylsulfonylphenyl)sulfonyl-2-pyridyl]methyl]furo[2,3-c]pyridine-2-carboxamide] | 6.8 | 15.1 | – | – |

Further lines, results first:

| IC50 [1] [nM] | IC50 [2, 3] [nM] | IC50 [2, 4] [nM] | IC50 [2, 5] [nM] | SMILES |
| --- | --- | --- | --- | --- |
| 39.8 | 46.5 | – | – | O=C(NCc1ccc(S(=O)(=O)c2cccc(N3CCOCC3)c2)cn1)c1ccc2nccn2c1 [Example 154, N-[[5-(3-morpholinophenyl)sulfonyl-2-pyridyl]methyl]imidazo[1,2-a]pyridine-6-carboxamide] |
| 249 | 106 | – | – | CC(C)CN1CCC([S+]([O-])c2ccc(CNC(=O)c3ccc4nccn4c3)nc2)CC1 (centres unmarked) [Example 172, N-[[5-[(1-isobutyl-4-piperidyl)sulfinyl]-2-pyridyl]methyl]imidazo[1,2-a]pyridine-6-carboxamide] |
| 62 | – | – | 51.2 | CCCn1cc(S(=O)(=O)c2ccc(CNC(=O)c3cc4cnccc4[nH]3)nc2)cn1 [Example 171, N-[[5-(1-propylpyrazol-4-yl)sulfonyl-2-pyridyl]methyl]-1H-pyrrolo[3,2-c]pyridine-2-carboxamide] |
| 207 | 71.7 | – | – | O=C(NCc1ccc(S(=O)(=O)N2CCN(C3COC3)CC2)cn1)c1cc2ccncc2o1 [Example 141, N-[[5-[4-(oxetan-3-yl)piperazin-1-yl]sulfonyl-2-pyridyl]methyl]furo[2,3-c]pyridine-2-carboxamide] |
| 60.8 | 14.9 | – | – | O=C(NCc1ccc(S(=O)(=O)c2cncc(C(F)(F)F)c2)cn1)c1ccc2nccn2c1 [Example 168, N-[[5-[[5-(trifluoromethyl)-3-pyridyl]sulfonyl]-2-pyridyl]methyl]imidazo[1,2-a]pyridine-6-carboxamide] |
| 156 | 2000 | – | – | N#Cc1cccc(S(=O)(=O)c2ccc(CNC(=O)N3Cc4ccncc4C3)nc2)c1 [Example 158, N-[[5-(3-cyanophenyl)sulfonyl-2-pyridyl]methyl]-1,3-dihydropyrrolo[3,4-c]pyridine-2-carboxamide] |
| 217 | 64.4 | – | – | O=C(NCc1ccc(S(=O)(=O)c2cncc(C(F)(F)F)c2)cn1)c1cnc2[nH]ncc2c1 [Example 165, N-[[5-[[5-(trifluoromethyl)-3-pyridyl]sulfonyl]-2-pyridyl]methyl]-1H-pyrazolo[3,4-b]pyridine-5-carboxamide] |
| 217 | 116 | – | – | N#Cc1cncc(S(=O)(=O)c2ccc(CNC(=O)c3cc4ccncc4o3)nc2)c1 [Example 174, N-[[5-[(5-cyano-3-pyridyl)sulfonyl]-2-pyridyl]methyl]furo[2,3-c]pyridine-2-carboxamide] |
| 49.1 | 25.4 | – | – | O=C(NCc1ccc(S(=O)(=O)c2cncc(C(F)(F)F)c2)cn1)N1Cc2ccncc2C1 [Example 170, N-[[5-[[5-(trifluoromethyl)-3-pyridyl]sulfonyl]-2-pyridyl]methyl]-1,3-dihydropyrrolo[3,4-c]pyridine-2-carboxamide] |
| 18 | – | 34.4 | – | CN1CCN(c2ccc(S(=O)(=O)c3ccc(CNC(=O)c4cc5ccncc5o4)nc3)cn2)CC1 [Example 135, N-[[5-[[6-(4-methylpiperazin-1-yl)-3-pyridyl]sulfonyl]-2-pyridyl]methyl]furo[2,3-c]pyridine-2-carboxamide] |
